Laboratory results published in patent publication US10272039B2 (The United States of America, as represented by the …, priority 2014, dated 2019).

How the values were obtained:
[1] = system: chronic leg ulcers in patients with sickle cell anaemia; settings: concomitant use in 9 of 18 trial patients; p=0.96
[2] = trial patients; after ingestion of hydroxycarbamide vs after sodium nitrite application
Protocol: Plasma and whole blood nitrite and nitrate concentrations were collected at the following time points: pre-dose; immediately after application; 5, 10, 15, 20, 30, 45, 60, and 90 min post-dose; 2, 3, 6, 8, 12, 24, and 48 h post-dose; then weekly and at the end of the study. All processing was done at the bedside. Plasma and whole blood nitrite and nitrate were measured with a gas-phase chemiluminescence nitric oxide analyzer, as previously reported (Gladwin et al., Proc Natl Acad Sci USA.; 97: 11482-11487, 2000).
Therefore, we did a subsequent pharmacokinetic analysis was carried out with respect to the time and dose of hydroxycarbamide intake instead of nitrite cream administration, using a population approach. A two-compartment model was fitted with first-order absorption and elimination to whole blood nitrite concentrations using first-order conditional estimation method by Phoenix NLME 1.2 (Certara USA Inc., St Louis, Mo., USA), and an exponential model was used to describe the inter-individual variability and a mixed-ratio model to describe the intra-individual variability (FIG. 7C).

[3] = system: sickle cell disease leg ulcers; settings: published randomised trials; RGD peptide topical, arginine butyrate intravenous; cited from earlier work

Whole blood nitrite concentrations [2] | Compound | Association with ulcer healing [1] | Wound closure [3]
increased | NC(=O)NO [hydroxycarbamide] | not associated with ulcer healing | –
– | Arg-Gly-Asp (RGD) peptide | – | statistically significant increases in wound closure
– | arginine butyrate | – | statistically significant increases in wound closure
